Reference: ChEMBL document CHEMBL1201862, “PubChem BioAssay data set” (2004)
Activity calls are given as the source filed them.

How the values were obtained:
BJ [1] = experiment: cytotoxicity toward BJ-TERT fibroblasts, dose response, cell-based, RAS-independent, luminescence (AID 1933); type: functional; details: Homo sapiens
BJ [2] = experiment: cells; type: functional, cell-based; details: Homo sapiens
[3] = inhibitors of intracellular T. cruzi replication, confirmation, NIH3T3 host cells, beta-gal luminescence (AID 2044); type: functional, cell-based;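 further: intracellular parasites grown in NIH/3T3 mouse fibroblasts as host cells; luminescent beta-galactosidase reporter signal from transgenic T. cruzi replicating inside host cells; inhibitors lower the luminescence signal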
[4] = cytotoxicity toward NIH3T3 fibroblasts, dose response, counter-screen, cell-based, ATP luminescence, mouse fibroblasts (AID 2010); type: functional;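 further: cells exposed to compound for about 90 hours before reading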
BJ [5] = experiment: cytotoxicity toward BJ-TERT-LT-ST fibroblasts, dose response, cell-based, RAS-independent, luminescence (AID 1935); type: functional; details: Homo sapiens;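 further: BJ fibroblasts immortalized with TERT plus LT and ST oncogenes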
[6] = cytotoxicity toward DRD oncogenic fibroblasts, dose response, cell-based, non-viral oncogenic, luminescence (AID 1934); type: functional; details: Homo sapiens
[7] = THP-1 cell cytotoxicity, dose response, cytotoxicity control for non-replicating M. tuberculosis project (AID 489025); type: functional
[8] = HepG2 cell cytotoxicity, dose response, cytotoxicity control for non-replicating M. tuberculosis project (AID 489018); type: functional; details: Mycobacterium tuberculosis
Beta-galactosidase = Beta-galactosidase (Escherichia coli, UniProt Q8VNN2); experiment: beta-galactosidase enzyme inhibitors and activators, dose response, artefact control for CCR6 antagonist project, biochemical, E. coli enzyme, set 3 (AID 504712); type: functional
Beta-galactosidase, sequence (Q8VNN2 whole entry): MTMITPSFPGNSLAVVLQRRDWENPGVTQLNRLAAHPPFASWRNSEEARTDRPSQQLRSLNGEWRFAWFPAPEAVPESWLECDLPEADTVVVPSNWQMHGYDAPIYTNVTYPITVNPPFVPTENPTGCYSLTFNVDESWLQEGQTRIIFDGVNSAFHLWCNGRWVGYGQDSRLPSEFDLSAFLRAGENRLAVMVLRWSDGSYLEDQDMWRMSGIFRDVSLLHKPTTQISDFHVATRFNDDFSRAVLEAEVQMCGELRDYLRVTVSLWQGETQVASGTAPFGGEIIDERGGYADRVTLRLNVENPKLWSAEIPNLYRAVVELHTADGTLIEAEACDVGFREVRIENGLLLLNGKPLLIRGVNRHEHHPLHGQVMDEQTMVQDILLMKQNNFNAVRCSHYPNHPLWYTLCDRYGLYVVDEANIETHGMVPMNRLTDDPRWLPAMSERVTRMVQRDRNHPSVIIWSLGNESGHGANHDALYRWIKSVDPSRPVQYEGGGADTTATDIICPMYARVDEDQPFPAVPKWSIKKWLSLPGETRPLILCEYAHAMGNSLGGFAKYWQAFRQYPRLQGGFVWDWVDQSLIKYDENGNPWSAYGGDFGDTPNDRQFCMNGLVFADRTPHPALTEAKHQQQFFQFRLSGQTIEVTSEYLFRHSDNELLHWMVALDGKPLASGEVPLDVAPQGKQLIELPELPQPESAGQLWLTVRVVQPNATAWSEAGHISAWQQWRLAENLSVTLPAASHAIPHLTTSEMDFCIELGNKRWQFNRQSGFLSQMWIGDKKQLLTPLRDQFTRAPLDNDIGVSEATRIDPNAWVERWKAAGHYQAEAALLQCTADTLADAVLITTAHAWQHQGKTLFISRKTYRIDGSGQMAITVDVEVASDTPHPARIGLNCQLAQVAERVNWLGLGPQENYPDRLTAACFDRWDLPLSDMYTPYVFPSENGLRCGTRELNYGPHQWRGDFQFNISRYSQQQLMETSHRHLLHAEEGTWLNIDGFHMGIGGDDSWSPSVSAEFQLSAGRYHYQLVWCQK

[9] = Vero E6 cell cytotoxicity, dose response, cytotoxicity control for non-replicating M. tuberculosis project, secondary assay (AID 492998); type: functional, VeroE6; details: Vero C1008
cells = type: functional
[10] = target: T1, Replicative DNA helicase DnaB (Mycobacterium tuberculosis, UniProt P9WMR3); experiment: DnaB intein splicing inhibitors, dose response, biochemical, cell-free fluorescence (AID 449749); type: functional
T1 sequence (P9WMR3 whole entry): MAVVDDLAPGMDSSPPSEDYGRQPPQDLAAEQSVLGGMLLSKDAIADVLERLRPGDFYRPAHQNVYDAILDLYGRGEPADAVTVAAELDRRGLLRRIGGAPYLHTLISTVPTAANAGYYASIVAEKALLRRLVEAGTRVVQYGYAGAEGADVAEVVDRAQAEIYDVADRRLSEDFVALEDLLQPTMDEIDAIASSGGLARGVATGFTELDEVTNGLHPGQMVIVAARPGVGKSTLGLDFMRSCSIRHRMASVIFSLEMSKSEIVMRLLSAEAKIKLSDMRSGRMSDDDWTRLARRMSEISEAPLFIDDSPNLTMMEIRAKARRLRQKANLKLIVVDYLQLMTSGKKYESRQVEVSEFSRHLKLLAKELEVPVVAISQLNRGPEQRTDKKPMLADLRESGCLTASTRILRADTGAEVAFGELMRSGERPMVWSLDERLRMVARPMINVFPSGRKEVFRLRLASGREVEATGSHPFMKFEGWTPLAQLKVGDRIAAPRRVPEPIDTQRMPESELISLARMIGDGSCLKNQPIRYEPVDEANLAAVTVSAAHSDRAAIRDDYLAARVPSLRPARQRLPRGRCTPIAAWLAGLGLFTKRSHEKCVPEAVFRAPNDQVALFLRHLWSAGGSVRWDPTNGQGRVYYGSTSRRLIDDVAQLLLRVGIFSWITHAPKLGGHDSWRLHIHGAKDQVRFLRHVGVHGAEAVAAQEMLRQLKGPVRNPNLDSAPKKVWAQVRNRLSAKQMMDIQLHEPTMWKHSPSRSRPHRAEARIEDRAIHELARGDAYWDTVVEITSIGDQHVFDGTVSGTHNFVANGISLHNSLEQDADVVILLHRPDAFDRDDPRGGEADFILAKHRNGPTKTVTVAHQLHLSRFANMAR

[11] = target: Heat shock protein HSP 90-alpha (Homo sapiens, UniProt P07900); type: functional, organism-based
Apelin receptor = Apelin receptor (Homo sapiens, UniProt P35414); experiment: APJ beta-arrestin recruitment antagonism, SAR follow-up, selectivity assay for CCR6 antagonist project, cell-based, luminescent, enzyme-fragment complementation (AID 588359); type: functional
Apelin receptor, sequence (P35414 whole entry, the tested form may be a part): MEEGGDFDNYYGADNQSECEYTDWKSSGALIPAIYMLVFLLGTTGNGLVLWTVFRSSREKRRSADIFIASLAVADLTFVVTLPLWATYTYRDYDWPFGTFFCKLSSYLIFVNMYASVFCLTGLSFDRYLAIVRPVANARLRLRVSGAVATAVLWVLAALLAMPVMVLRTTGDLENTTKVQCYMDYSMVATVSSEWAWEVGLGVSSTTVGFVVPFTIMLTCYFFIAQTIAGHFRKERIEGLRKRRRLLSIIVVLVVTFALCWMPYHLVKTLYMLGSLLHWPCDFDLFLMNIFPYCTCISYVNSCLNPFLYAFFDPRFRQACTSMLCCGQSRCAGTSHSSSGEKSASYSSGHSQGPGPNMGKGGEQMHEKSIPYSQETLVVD

Protein RecA = target: T2, Protein RecA (Mycobacterium tuberculosis, UniProt P9WHJ3); experiment: Fluorescence Cell-Free Homogeneous Dose Retest to Identify Inhibitors of RecA-Intein Splicing Activity. [Related pubchem assays (depositor defined):AID2097, AID2223, AID489010, AID492950]; type: functional
T2 sequence (P9WHJ3 whole entry): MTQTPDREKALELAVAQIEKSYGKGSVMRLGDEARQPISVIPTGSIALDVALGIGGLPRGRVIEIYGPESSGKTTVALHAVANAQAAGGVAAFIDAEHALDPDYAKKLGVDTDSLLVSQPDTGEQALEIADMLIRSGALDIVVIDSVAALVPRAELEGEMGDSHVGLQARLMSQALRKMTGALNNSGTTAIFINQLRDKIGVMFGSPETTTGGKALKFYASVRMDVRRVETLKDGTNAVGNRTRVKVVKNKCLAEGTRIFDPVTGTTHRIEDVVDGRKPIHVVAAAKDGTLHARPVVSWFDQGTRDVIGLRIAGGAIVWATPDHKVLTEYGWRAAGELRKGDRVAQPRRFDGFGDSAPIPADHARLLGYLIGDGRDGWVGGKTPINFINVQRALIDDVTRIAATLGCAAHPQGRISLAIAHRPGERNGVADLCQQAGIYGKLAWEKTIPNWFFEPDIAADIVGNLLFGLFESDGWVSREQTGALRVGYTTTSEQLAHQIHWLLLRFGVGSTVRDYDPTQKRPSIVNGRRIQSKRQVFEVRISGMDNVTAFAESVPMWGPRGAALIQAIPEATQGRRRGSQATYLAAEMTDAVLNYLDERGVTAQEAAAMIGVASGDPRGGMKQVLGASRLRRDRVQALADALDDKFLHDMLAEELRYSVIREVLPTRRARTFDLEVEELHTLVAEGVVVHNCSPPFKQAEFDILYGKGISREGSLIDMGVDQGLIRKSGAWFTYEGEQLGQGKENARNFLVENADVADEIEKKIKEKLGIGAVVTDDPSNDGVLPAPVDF

[12] = target: Beta-2 adrenergic receptor (Homo sapiens, UniProt P07550); experiment: beta2AR agonists driving receptor internalization, dose response, cell-based, FAP fluorogen, flow cytometry, cherry pick 1 (AID 588763); type: functional
Beta-2 adrenergic receptor, sequence (P07550 whole entry): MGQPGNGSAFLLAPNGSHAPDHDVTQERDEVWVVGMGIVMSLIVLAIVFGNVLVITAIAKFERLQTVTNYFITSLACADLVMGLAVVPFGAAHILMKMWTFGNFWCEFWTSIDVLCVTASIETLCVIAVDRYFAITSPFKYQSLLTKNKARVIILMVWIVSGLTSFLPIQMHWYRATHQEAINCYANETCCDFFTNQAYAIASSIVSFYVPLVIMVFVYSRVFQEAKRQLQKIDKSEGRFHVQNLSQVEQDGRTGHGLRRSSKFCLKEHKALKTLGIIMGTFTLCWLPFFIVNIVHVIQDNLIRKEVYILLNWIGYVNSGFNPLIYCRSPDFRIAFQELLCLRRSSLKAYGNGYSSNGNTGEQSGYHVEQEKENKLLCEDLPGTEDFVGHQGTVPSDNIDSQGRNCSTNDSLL

[13] = target: Dual specificity protein phosphatase 3 (Homo sapiens, UniProt P51452); experiment: SAR VHR1 Fluorescent Assay for In Vitro dose response studies Set 3. [Related pubchem assays (depositor defined):AID1654, AID1661, AID1878]; type: functional
Dual specificity protein phosphatase 3, sequence (P51452 whole entry): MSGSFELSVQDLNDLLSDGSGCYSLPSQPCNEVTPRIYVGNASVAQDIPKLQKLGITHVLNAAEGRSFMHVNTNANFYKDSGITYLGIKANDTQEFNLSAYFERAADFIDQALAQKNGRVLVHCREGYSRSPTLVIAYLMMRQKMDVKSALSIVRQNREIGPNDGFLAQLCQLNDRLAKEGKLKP

[14] = NIH-3T3 fibroblast cytotoxicity, dose response, cytotoxicity control, cell-based, fluorescence, Alamar Blue, secondary assay (AID 2327); type: functional;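 further: NIH-3T3 mouse fibroblasts cultured with fluconazole at 8 µg/mL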
[15] = C. albicans growth with fluconazole, confirmation, fluorescence, retest (AID 2467); type: functional, cell-based
[16] = target: T3, Ubiquitin-conjugating enzyme E2 N (Homo sapiens, UniProt P61088); type: functional;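 further: Dose-response confirmation in a TR-FRET assay detecting UBC13-driven polyubiquitin chain formation, inhibition measured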
T3 sequence (P61088 whole entry): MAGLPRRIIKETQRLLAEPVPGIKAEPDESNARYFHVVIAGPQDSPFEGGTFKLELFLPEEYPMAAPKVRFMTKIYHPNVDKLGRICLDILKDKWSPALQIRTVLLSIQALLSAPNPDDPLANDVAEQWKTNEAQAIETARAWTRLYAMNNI

Mu-type opioid receptor = Mu-type opioid receptor (Homo sapiens, UniProt P35372); type: functional, cell-based;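 further: U2OS cells with beta-arrestin recruitment to OPRM1 by beta-gal complementation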
Mu-type opioid receptor, sequence (P35372 whole entry): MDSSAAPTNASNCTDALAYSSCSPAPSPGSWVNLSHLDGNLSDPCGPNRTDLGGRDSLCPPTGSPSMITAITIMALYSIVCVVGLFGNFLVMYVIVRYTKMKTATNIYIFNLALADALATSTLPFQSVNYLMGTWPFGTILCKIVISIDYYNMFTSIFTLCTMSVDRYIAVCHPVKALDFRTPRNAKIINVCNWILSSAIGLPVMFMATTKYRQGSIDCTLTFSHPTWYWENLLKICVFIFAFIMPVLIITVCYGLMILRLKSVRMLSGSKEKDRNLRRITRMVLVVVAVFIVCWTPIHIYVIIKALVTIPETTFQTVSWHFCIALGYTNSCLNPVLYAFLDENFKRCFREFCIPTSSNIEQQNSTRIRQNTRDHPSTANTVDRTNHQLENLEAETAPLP

[17] = target: 5-hydroxytryptamine receptor 2A (Mus musculus, UniProt P35363); type: functional, cell-based;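 further: CHO-K1 cells with tagged receptor and beta-arrestin; agonist potency measured as compound-induced activation of the receptor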
5-hydroxytryptamine receptor 2A, sequence (P35363 whole entry): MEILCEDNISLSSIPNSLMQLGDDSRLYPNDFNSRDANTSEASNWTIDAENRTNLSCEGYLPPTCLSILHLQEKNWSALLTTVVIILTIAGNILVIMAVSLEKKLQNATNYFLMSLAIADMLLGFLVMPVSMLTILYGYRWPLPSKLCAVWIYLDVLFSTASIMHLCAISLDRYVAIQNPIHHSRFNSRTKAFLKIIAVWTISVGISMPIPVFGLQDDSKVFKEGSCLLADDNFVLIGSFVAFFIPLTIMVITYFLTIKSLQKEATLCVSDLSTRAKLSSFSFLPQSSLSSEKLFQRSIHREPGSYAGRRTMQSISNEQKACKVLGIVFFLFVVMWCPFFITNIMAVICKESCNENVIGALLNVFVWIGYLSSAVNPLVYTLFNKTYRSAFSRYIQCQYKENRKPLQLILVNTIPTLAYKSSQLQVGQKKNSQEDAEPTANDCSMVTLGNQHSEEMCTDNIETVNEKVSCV

[18] = target: Voltage-gated inwardly rectifying potassium channel KCNH2 (Homo sapiens, UniProt Q12809); details: Potency;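 further: confirmatory quantitative high-throughput screen measuring inhibition of hERG channel activity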
Voltage-gated inwardly rectifying potassium channel KCNH2, sequence (Q12809 whole entry): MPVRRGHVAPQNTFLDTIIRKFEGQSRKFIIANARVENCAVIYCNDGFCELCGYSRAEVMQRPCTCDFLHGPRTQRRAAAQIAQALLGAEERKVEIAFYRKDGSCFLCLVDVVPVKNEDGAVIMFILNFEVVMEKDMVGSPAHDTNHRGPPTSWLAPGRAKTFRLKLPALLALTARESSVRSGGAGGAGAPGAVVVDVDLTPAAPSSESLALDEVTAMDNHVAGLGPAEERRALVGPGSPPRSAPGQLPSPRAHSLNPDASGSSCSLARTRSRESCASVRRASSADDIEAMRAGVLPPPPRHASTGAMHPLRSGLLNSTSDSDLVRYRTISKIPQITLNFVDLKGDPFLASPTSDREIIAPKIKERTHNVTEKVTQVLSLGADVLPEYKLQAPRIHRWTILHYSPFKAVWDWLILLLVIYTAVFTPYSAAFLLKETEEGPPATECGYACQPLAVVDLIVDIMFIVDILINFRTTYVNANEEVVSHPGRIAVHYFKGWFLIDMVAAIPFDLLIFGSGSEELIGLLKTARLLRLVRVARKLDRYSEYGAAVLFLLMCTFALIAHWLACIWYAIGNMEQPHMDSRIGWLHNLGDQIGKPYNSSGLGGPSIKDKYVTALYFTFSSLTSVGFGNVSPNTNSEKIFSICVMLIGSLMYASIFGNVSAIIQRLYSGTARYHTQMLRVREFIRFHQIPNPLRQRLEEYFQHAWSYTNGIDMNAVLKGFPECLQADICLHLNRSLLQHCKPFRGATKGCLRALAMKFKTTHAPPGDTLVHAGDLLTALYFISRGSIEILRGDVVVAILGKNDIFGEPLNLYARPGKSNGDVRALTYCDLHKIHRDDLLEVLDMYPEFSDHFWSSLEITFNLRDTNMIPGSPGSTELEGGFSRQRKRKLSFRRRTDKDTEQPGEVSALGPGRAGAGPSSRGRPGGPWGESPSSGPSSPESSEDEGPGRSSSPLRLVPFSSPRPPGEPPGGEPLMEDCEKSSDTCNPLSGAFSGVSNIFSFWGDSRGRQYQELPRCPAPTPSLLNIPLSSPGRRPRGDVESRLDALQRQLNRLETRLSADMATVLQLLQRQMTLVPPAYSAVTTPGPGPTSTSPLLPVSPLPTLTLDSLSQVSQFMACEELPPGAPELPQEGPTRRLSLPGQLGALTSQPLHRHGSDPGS

[19] = cytotoxicity in NIH/3T3 mouse fibroblasts, dose response, cytotoxicity control, cell-based, mouse embryonic fibroblasts, dry powder, set 2 (AID 493247); type: functional; details: Fibroblast
Trypanosoma cruzi = experiment: growth inhibition of intracellular Trypanosoma cruzi, dose response, cell-based, plate reader, dry powder, set 3 (AID 493197); type: functional
[20] = inhibitors of Trypanosoma cruzi host-cell infection, confirmation, beta-gal luminescence, NIH3T3 host cells (AID 2630); type: functional, cell-based; details: Mus musculus
Escherichia coli = experiment: microbe, parasite or virus in culture
[21] = target: T4, Microphthalmia-associated transcription factor (Homo sapiens, UniProt O75030); experiment: TRPM1 promoter luciferase signal decrease, dose response, MITF inhibitor project, cell-based, SK-MEL-5, cherry-picked, set 3 (AID 493073); type: functional
T4 sequence (O75030 whole entry): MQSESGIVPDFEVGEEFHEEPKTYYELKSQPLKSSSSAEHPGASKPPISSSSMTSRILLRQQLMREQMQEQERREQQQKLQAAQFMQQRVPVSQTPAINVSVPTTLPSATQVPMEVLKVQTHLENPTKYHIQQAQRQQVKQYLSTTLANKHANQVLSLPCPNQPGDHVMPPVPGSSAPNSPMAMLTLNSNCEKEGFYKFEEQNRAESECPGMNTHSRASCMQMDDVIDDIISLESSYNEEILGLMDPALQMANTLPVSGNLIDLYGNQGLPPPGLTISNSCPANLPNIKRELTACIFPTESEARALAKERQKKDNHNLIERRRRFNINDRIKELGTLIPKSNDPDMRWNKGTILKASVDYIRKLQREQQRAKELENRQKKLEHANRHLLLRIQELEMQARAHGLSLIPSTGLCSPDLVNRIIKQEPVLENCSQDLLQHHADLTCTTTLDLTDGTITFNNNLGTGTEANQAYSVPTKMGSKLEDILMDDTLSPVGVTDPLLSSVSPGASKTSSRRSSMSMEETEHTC

A-375 = experiment: MITF: Counter assay: A375 proliferation Measured in Cell-Based System Using Plate Reader - 2084-03_Inhibitor_Dose_DryPowder_Activity. [Related pubchem assays (depositor defined):AID488944]; type: functional; details: Homo sapiens
[22] = target: T5, DNA repair protein RAD52 homolog (Homo sapiens, UniProt P43351); type: functional, biochemical
T5 sequence (P43351 whole entry): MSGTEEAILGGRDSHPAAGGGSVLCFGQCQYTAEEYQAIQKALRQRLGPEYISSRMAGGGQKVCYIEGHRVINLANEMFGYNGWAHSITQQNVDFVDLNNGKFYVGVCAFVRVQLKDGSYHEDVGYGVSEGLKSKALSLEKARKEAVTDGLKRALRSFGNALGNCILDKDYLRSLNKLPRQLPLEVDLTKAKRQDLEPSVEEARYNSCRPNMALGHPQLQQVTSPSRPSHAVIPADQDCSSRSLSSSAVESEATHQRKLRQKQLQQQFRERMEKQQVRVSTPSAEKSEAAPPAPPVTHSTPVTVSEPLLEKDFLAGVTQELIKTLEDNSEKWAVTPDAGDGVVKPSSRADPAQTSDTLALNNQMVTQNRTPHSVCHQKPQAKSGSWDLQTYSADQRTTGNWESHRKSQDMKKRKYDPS

O=[N+]([O-])c1ccc(S(=O)(=O)c2cccc(C(F)(F)F)c2)nc1
EC50 (BJ [1]): 2.55 µM (inconclusive)
EC50 (BJ [2]): 12.1 µM (inconclusive)
EC50 [3]: 0.913 µM (active)
EC50 [4]: 2.06 µM (active)
EC50 (BJ [5]): 10.8 µM (inconclusive)
EC50 [6]: 6.52 µM (active)
CC50 [7]: 28.8 µM (active)
CC50 [8]: > 20 µM (active)
IC50 (Beta-galactosidase): > 66.6 µM (inactive)
CC50 [9]: 14.8 µM (active)
IC50 (cells): 3.47 µM (active)
AC50 [10]: > 380 µM (inactive)
AC50 [11]: 1.84 µM (active)
IC50 (Apelin receptor): 18.8 µM (active)
EC50 (Protein RecA): 14.2 µM (active)
EC50 [12]: 7.62 µM (inactive)

CCOc1cccc2sc(NC(=O)c3ccc(OC)cc3)nc12
IC50 [13]: 51.7 µM (active)

NC[C@@H]1O[C@H](C23CC4CC(CC(C4)C2)C3)Cc2c1ccc(O)c2O
EC50 [14]: > 150 µM (inactive)
EC50 (BJ [1]): 10.3 µM (inconclusive)
EC50 (BJ [2]): > 150 µM (not active)
EC50 [15]: 4.44 µM (active)
EC50 (BJ [5]): 13.7 µM (inconclusive)
EC50 [6]: 13.1 µM (active)
IC50 [16]: > 20 µM (inactive)
EC50 (Mu-type opioid receptor): 92.4 µM (inactive)
EC50 [17]: 1.2 µM (active)
AC50 [18]: 22.4 µM (inconclusive)

CN(Cc1ccccc1)C(=O)C1CCCN(Cc2ccccc2C(F)(F)F)C1 (stereo not given)
AC50 [19]: 63.3 µM (active)
AC50 (Trypanosoma cruzi): 15.9 µM (active)
EC50 [20]: 4.64 µM (active)

COC(=O)c1cnc(NNS(=O)(=O)c2ccc(C(F)(F)F)cc2)nc1C(F)(F)F
AC50 (Escherichia coli): > 380 µM (inactive)

CN1CCC(N(C)C(=O)/C=C/c2cn(-c3ccccc3)nc2-c2cccs2)CC1
IC50 [16]: > 20 µM (inactive)
AC50 [21]: 9.82 µM (active)
AC50 (A-375): 30.5 µM (active)
AC50 [22]: 12.2 µM (active)
